Measurements reported in patent US7763732B2, “Indole derivatives” (N.V. Organon, priority 2005, dated 2010).

Tested on: mice
Assay: Formalin paw test in mice
Assay type: in vivo
Details: Mus musculus, intravenous, 5 min before 5% formalin s.c. into hind paw, Phase 2 = 20-30 min after formalin, read-out: ED50, inhibition of nociceptive behaviour of Phase 2
Procedure: Formalin Paw Test In Mice
Four-six groups of six mice were treated with vehicle and one of four to five doses of the test compound (typically between 0.03, 0.1, 3 and 10 μmol/kg), administered intravenously into the tail vein (vehicle: 10% Tween-80 in saline; injection volume 10 ml/kg). This injection was followed 5 minutes later by 20 μl of 5% formalin, which was administered sub-cutaneously to the dorsum of the left hind paw. Immediately after formalin administration the animal was placed in a test chamber and data acquisition, using a detection device (Automated Nociception Analyser (ANA); Department of Anesthesiology, University of California, San Diego), was started, independently for each chamber. The nociceptive behaviour was measured as the number of counts (licking, lifting, biting and flinching actions) detected within the two phases of nociception (Yaksh et al, 2001). The nociceptive behaviour between 0 and 5 min after formalin injection (Phase 1) and between 20 and 30 min after formalin injection (Phase 2) was recorded and number of counts for each mouse, compared to the mean number of counts for the vehicle treated animals, was calculated. Once values for each mouse were obtained, the mean and s.e.m. were calculated for each treatment group. The percent inhibition data were then used to calculate ED50 values for Phase 1 and Phase 2.

| Compound | ED50 |
| --- | --- |
| CCc1cccc2c(-c3nsc(CN4CCC(C(=O)NCCO)CC4)n3)cn(CC3CCOCC3)c12 [Example 10A, 7-Ethyl-3-[(5-{4-[(N-{2-hydroxy}ethyl)carboxamido]piperidin-1-yl}methyl)-(1,2,4]-thiadiazol-3-yl)-1-(tetrahydropyran-4-yl)methyl-1H-indole] | < 5 µmol/kg |
| CS(=O)(=O)N(CCO)Cc1nc(-c2cn(CC3CCOCC3)c3c(Cl)cccc23)ns1 [Example 15, 7-Chloro-3-({5-[(N-{2-hydroxy}ethyl)-(N-{methylsulfonyl})amino]methyl}-([1,2,4]-thiadiazol-3-yl))-1-(tetrahydropyran-4-yl)methyl-1H-indole] | < 5 µmol/kg |
| O=C(NCCO)C1CCN(Cc2nc(-c3cn(CC4CCOCC4)c4c(Cl)cccc34)no2)CC1 [Example 19] | < 5 µmol/kg |
| CN(CC(N)=O)Cc1nc(-c2cn(CC3CCOCC3)c3c(Cl)cccc23)no1 [Example 20, 7-Chloro-3-[(5-{[N-(carboxamido)methyl]-N-methylamino}methyl)-([1,2,4]oxadiazol-3-yl)]-1-(tetrahydropyran-4-yl)methyl-1H-indole] | < 5 µmol/kg |
